Measured values taken from PMC10721899, “The bactericidal and antibiofilm effects of a lysine-substituted hybrid peptide, CM-10K14K, on biofilm-forming Staphylococcus epidermidis” (Scientific Reports, 2023).
Counter-ions that a name gives are not always drawn. Ends that are not written are not given here.

Tests used:
[1] = test system: S. epidermidis ATCC 35984 (biofilm-producer); experiment: microbe, parasite or virus in culture; assay type: cell-based, Staphylococcus epidermidis; details: for MIC, minimum inhibitory concentration: MHB; for MBC, minimum bactericidal concentration: colony count from non-turbid MIC wells
Description: (§1) The S. epidermidis ATCC 35984 (biofilm-producer), Staphylococcus aureus ATCC 25923, Enterococcus faecalis ATCC 29219, Acinetobacter baumannii ATCC 19606, Klebsiella pneumoniae ATCC 27736 and Pseudomonas aeruginosa ATCC 27853 were grown overnight on trypticase soy agar (TSA; BD Bacto™), then subcultured in TSB and incubated at 37 °C for 16–18 h before each experiment. Stock bacterial cultures were kept frozen at − 80 °C in trypticase soy broth (TSB; BD Bacto™, USA) containing 20% glycerol.
(§2) The antimicrobial activity of peptides against S. epidermidis and five strains of both gram-positive and gram-negative bacteria frequently involved in catheter-related infections including S. aureus, E. faecalis, A. baumannii, K. pneumoniae, and P. aeruginosa was compared to that of vancomycin (Vancomycin hydrochloride, BioChemica, UK) using a modified version of the National Committee for Clinical Laboratory Standards (NCCLS) broth microdilution method. Two-fold serially diluted (0.98–250 µg/mL) aliquots of the peptides were prepared in type 1 water and added to sterile 96-well polypropylene microplates (Nunclon Delta-Treated; Thermo Scientific™, Denmark) in a volume of 50 µL, followed by the addition of 50 µL of bacterial suspensions (2–7 × 10^5 CFU/mL) in Mueller Hinton Broth (MHB; BD Difco™, USA). Uninoculated MHB and bacterial cultures without peptides were used as negative and positive controls, respectively. After culturing in an incubator shaker for 24 h at 37 °C, the lowest concentration at which the peptide inhibited bacterial growth as observed by visual inspection was taken as the minimal inhibitory concentration (MIC)[22]. Fifty microliter aliquots from each non-turbid well identified in the MIC experiment were plated on TSA for determination of minimal bactericidal concentration (MBC) by colony count assay. […] All experiments were performed in triplicate.

[2] = test system: Acinetobacter baumannii ATCC 19606; assay type: cell-based
Description: as §1, §2

[3] = test system: Enterococcus faecalis ATCC 29219; assay type: cell-based
Description: as §1, §2

[4] = test system: Klebsiella pneumoniae ATCC 27736; assay type: cell-based
Description: as §1, §2

[5] = test system: Pseudomonas aeruginosa ATCC 27853; assay type: cell-based
Description: as §1, §2

[6] = test system: Staphylococcus aureus ATCC 25923; assay type: cell-based
Description: as §1, §2

[7] = test system: human red blood cells (hRBCs); experiment: Hemolytic activity; assay type: cell-based; details: 1 h at 37 °C, relative to Triton-X control
Description: The quantity of hemoglobin released by treatment was used as a measure of a peptide’s hemolytic activity against human red blood cells (hRBCs)[23]. Venous blood was collected from a healthy volunteer in plastic blood collection tubes with lithium heparin (BD Vacutainer™, USA) and centrifuged at 2000×g for 5 min to separate the plasma and buffy coat. The hRBCs obtained were washed at least three times and diluted to 4% (vol/vol) in phosphate-buffered saline (PBS; Caisson Laboratories, USA). The same volume of the hRBC suspension (50 µL) was incubated with twofold, serially diluted concentrations (0.98–250 μg/mL) of peptide dissolved in PBS for 1 h at 37 °C. The hRBCs incubated in 0.1% Triton X-100 and PBS were used as positive (100% hemolysis) and negative (0% hemolysis) controls, respectively. The release of hemoglobin into the supernatants was monitored by measurement of absorbance at 405 nm using a Multiskan SkyHigh microplate reader (Thermo Scientific™, Singapore). The percentage of hemolysis was calculated as previously described.

Cytotoxicity, MTT assay = assay type: cell-based, mouse; details: mouse, L929 mouse fibroblast cells (NCTC clone 929), L929, 24 h, read-out: cell viability
Description: (§3) The cytotoxicity of the candidate peptide on L929 mouse fibroblast cell lines (NCTC clone 929) were evaluated using the 3-(4,5-dimethylthiazol-2-yl)-2,5-diphenyltetrazolium bromide (MTT) assay following the published protocol. L929 cells (3–5 × 10^4) in RPMI 1640 medium, supplemented with 10% (vol/vol) heat-inactivated fetal bovine serum, 2 mM L-glutamine, 0.2% (wt/vol) sodium bicarbonate, 100 U/mL penicillin and […] streptomycin were placed into each well of 96-well plates and incubated in 5% CO2 at 37 °C overnight. After removal of media, the two-fold serially diluted peptide was added to achieve final concentrations of 0.98–250 µg/mL. Plates were then incubated at 37 °C under 5% CO2 for 24 h. The RPMI 1640 medium with and without L929 seeded cells were used as positive and negative controls, respectively. After treatment, MTT (Sigma-Aldrich, USA) was added to a final concentration of 0.5 mg/mL and suspensions incubated for 4 h at 37 °C under 5% CO2. Supernatants from each well were then discarded, and 150 µl of dimethyl sulfoxide (DMSO; Fisher BioReagents™, UK) was added and gently mixed to dissolve the crystallized formazan. Absorbance was measured at 570 nm using a Multiskan SkyHigh microplate reader. Cell viability (%) was estimated according to the following formula: Cellviability%=AbsTreated-AbsBlank/AbsUntreated-AbsBlank×100

[8] = test system: L929 mouse fibroblast cells; experiment: Cytotoxicity, MTT assay; assay type: cell-based; details: MTT, 24 h
Description: as §3

[9] = test system: S. epidermidis ATCC 35984; experiment: Biostability: growth inhibition in the presence of proteinase K; assay type: cell-based, Staphylococcus epidermidis; details: 0.01 mg/mL proteinase K
Description: Proteolysis of peptide by proteinase K was determined using the growth inhibition assay described by Jia et al.[28] with some modifications. […] After 6 and 24 h of incubation, the growth inhibitory effect was determined by measuring the absorbance at 620 nm using a Multiskan SkyHigh microplate reader. The percentage of relative survival rate was calculated as follows: Relativesurvivalrate%=AbsTreated/AbsUntreated×100 where AbsTreated was absorbance value of S. epidermidis cells after incubation with peptide in the presence of proteinase K, AbsUntreated was that of S. epidermidis cells incubated with ultrapure water in the presence of proteinase K.

[10] = test system: S. epidermidis ATCC 35984; experiment: Biofilm inhibition assay, crystal violet staining; assay type: cell-based, Staphylococcus epidermidis
Description: The biofilm biomass was assessed using crystal violet staining to determine the ability of peptides to inhibit bacterial formation of biofilm ^1. Overnight S. epidermidis cultures were adjusted to an OD620 of 0.1 in TSB. An equal volume (50 µL) of bacterial suspension (~10^8 CFU/mL) was incubated with 2-fold serially diluted peptides (0.98-250 μg/mL) at 37°C for 24 h in 96-well plates. Supernatants were discarded after incubation, and wells were gently rinsed at least twice with 0.85% NaCl to remove planktonic cells. Adherent biofilms were fixed for 30 minutes with 95% ethanol, then the fixative solution was removed. The fixed biofilms were dried thoroughly and stained with addition of 150 µL of 0.1% crystal violet (CV) to each well containing biofilm, along with its respective control media. After 15 min, CV solutions were removed and wells were gently rinsed three times with 400 μL of 0.85% NaCl without disturbing the biofilm. The plates were left to dry for 30 min before adding 200 μL of 95% ethanol to each well to solubilize the bound CV with vigorous pipetting. The biofilm mass was evaluated by observing OD at 570 nm using a Multiskan SkyHigh microplate reader ^2. Results were expressed as the percentage of biofilm mass compared to that of control.

Question: Which “MIC, minimum inhibitory concentration” value ([1]; 24 h at 37 °C) does the source give for “KWKLFKKIGKVLKKL-NH2 [CM-10K14K, KWKLFKKIGKVLKKL-NH2]” here?
Answer: The value was 3.91 µg/mL.

Question: And the “MBC, minimum bactericidal concentration” value [1]?
Answer: Its value is 7.81 µg/mL.

Question: And the MBC [2]?
Answer: The MBC was 15.63 µg/mL.

Question: What about the MIC [2] of the same compound?
Answer: The MIC was 7.81 µg/mL.

Question: And the MBC [3]?
Answer: The MBC was 31.25 µg/mL.

Question: What about the MIC [3] of the same compound?
Answer: The MIC was 31.25 µg/mL.

Question: What about the MBC [4] of the same compound?
Answer: Its MBC is 31.25 µg/mL.

Question: What about the MIC [4] of the same compound?
Answer: The MIC was 15.63 µg/mL.

Question: And the MBC [5]?
Answer: Its MBC is 62.5 µg/mL.

Question: And the MIC [5]?
Answer: The MIC was 15.63 µg/mL.

Question: What about the MBC [6] of the same compound?
Answer: The MBC was 7.81 µg/mL.

Question: What about the MIC [6] of the same compound?
Answer: The MIC was 7.81 µg/mL.

Question: What about the “HC50, concentration of peptide that causes 50% hemolysis” value [7] of the same compound?
Answer: The value was 561.90 ± 88.19 µg/mL.

Question: What about the viability at 24 h (Cytotoxicity, MTT assay; at the MBC) of the same compound?
Answer: Its viability at 24 h is 92.9 ± 1.82%.

Question: What about the viability at 24 h, 3.91 μg/mL (Cytotoxicity, MTT assay; at the MIC) of the same compound?
Answer: Its viability at 24 h, 3.91 μg/mL is 100%.

Question: What about the “IC50 on L929 cells” value [8] of the same compound?
Answer: The value was 56.53 ± 1.84 µg/mL.

Question: Which “MIC, minimum inhibitory concentration” value ([1]; 24 h at 37 °C) does the source give for “KWKLFKKIGKVLKVL-NH2 [CM-10K, KWKLFKKIGKVLKVL-NH2]” here?
Answer: The value was 3.91 µg/mL.

Question: What about the “MBC, minimum bactericidal concentration” value [1] of the same compound?
Answer: The value was 7.81 µg/mL.

Question: What about the “HC50, concentration of peptide that causes 50% hemolysis” value [7] of the same compound?
Answer: The value was 85.78 ± 9.01 µg/mL.

Question: For “H-KWKLFKKIGAVLKVL-NH2 [C(1–7)M(2–9), KWKLFKKIGAVLKVL-NH2, reference compound]”, which MIC, minimum inhibitory concentration ([1]; 24 h at 37 °C) is on record?
Answer: Its MIC, minimum inhibitory concentration is 7.81 µg/mL.

Question: What about the MBC, minimum bactericidal concentration [1] of the same compound?
Answer: The MBC, minimum bactericidal concentration was 7.81 µg/mL.

Question: And the “HC50, concentration of peptide that causes 50% hemolysis” value [7]?
Answer: The value was 88.89 ± 4.62 µg/mL.

Question: What about the “antibacterial activity in the presence of proteinase K” value ([9]; 24-h incubation, CM-10K14K at 31.25 and 62.5 µg/mL) of the same compound?
Answer: Its value is “lost its ability to kill bacteria”.

Question: What about the “concentration inhibiting bacterial growth in the presence of proteinase K” value ([9]; 6 h of incubation) of the same compound?
Answer: Its value is “at least its MIC”.

Question: For “VWKLFKKIGAVLKKL-NH2 [CM-1V14K, VWKLFKKIGAVLKKL-NH2]”, which “MIC, minimum inhibitory concentration” value ([1]; 24 h at 37 °C) is on record?
Answer: The value was 7.81 µg/mL.

Question: What about the “MBC, minimum bactericidal concentration” value [1] of the same compound?
Answer: The value was 15.63 µg/mL.

Question: What about the “HC50, concentration of peptide that causes 50% hemolysis” value [7] of the same compound?
Answer: Its value is 131.70 ± 9.23 µg/mL.

Question: What does the source list for “VWKLFKKIGKVLKKL-NH2 [CM-1V10K14K, VWKLFKKIGKVLKKL-NH2]”?
Answer: MIC, minimum inhibitory concentration ([1]; 24 h at 37 °C): 3.91 µg/mL; MBC, minimum bactericidal concentration [1]: 15.63 µg/mL; HC50, concentration of peptide that causes 50% hemolysis [7]: 118.90 ± 8.19 µg/mL

Question: Which MIC ([1]; Staphylococcus epidermidis, ATCC35984, MHB, 24 h at 37 °C, read-out: MIC, minimum inhibitory concentration) does the source give for `CN[C@H](CC(C)C)C(=O)N[C@H]1C(=O)N[C@@H](CC(N)=O)C(=O)N[C@H]2C(=O)N[C@H]3C(=O)N[C@H](C(=O)N[C@H](C(=O)O)c4cc(O)cc(O)c4-c4cc3ccc4O)[C@H](O)c3ccc(c(Cl)c3)Oc3cc2cc(c3O[C@@H]2O[C@H](CO)[C@@H](O)[C@H](O)[C@H]2O[C@H]2C[C@](C)(N)[C@H](O)[C@H](C)O2)Oc2ccc(cc2Cl)[C@H]1O` [Vancomycin, Vancomycin hydrochloride, reference compound] here?
Answer: Its MIC is 3.91 µg/mL.

Question: What about the MBC ([1]; Staphylococcus epidermidis, ATCC35984, colony count from non-turbid MIC wells, read-out: MBC, minimum bactericidal concentration) of the same compound?
Answer: Its MBC is 7.81 µg/mL.

Question: What about the “effect on biofilm formation” value ([10]; at its MIC and MBC, 24 h) of the same compound?
Answer: Its value is “slightly induced biofilm formation”.

Question: What about the “reduction of the biomass of biofilms” value ([10]; treatment with > 15.63 µg/mL for 24 h) of the same compound?
Answer: Its value is “more than 90%”.

Question: Which results are given for “KWKLFKKIGAVLKVLA-NH2 [CM-A, KWKLFKKIGAVLKVLA-NH2]”?
Answer: MIC, minimum inhibitory concentration ([1]; 24 h at 37 °C): 7.81 µg/mL; MBC, minimum bactericidal concentration [1]: 15.63 µg/mL; HC50, concentration of peptide that causes 50% hemolysis [7]: 42.58 ± 1.98 µg/mL
